Experimental data published in patent publication US6015814A, “Quinazoline derivative” (Zeneca Limited, priority 1995, dated 2000).

Tests used:
[1] = test system: human vulval epidermoid carcinoma cell line A-431; assay: in vivo assay, inhibition of growth of A-431 xenografts in athymic nude mice (test (c)); parameters: species or system human xenografts in athymic nude mice (strain ONU:Alpk); settings: daily dose of 50 mg/kg; usually oral; relative to untreated controls
Procedure: (c) An in-vivo assay in a group of athymic nude mice (strain ONU:Alpk) which determines the ability of a test compound (usually administered orally as a ball-milled suspension in 0.5% polysorbate) to inhibit the growth of xenografts of the human vulval epidermoid carcinoma cell line A-431. A-431 cells were maintained in culture in DMEM supplemented with 5% FCS and 2 mM glutamine. Freshly cultured cells were harvested by trypsinization and injected subcutaneously (10 million cells/0.1 ml/mouse) into both flanks of a number of donor nude mice. When sufficient tumour material was available (after approximately 9 to 14 days), fragments of tumour tissue were transplanted in the flanks of recipient nude mice (test day 0). Generally, on the seventh day after transplantation (test day 7) groups of 7 to 10 mice with similar-sized tumours were selected and dosing of the test compound was commenced. Once daily dosing of test compound was continued for a total of 13 days (test days 7 to 19 inclusive). In some studies the dosing of the test compound was continued beyond test day 19, for example to test day 26. In each case, on the following test day the animals were killed and the final tumour volume was calculated from measurements of the length and width of the tumours. Results were calculated as a percentage inhibition of tumour volume relative to untreated controls.

[2] = test system: human naso-pharyngeal cancer cell line KB; assay: in vitro assay, inhibition of EGF-stimulated growth of the human naso-pharyngeal cancer cell line KB (test (b)); type: cell-based; settings: 72 h, KB cells, 3 days, approximately
Procedure: (b) An in vitro assay which determines the ability of a test compound to inhibit the EGF-stimulated growth of the human naso-pharyngeal cancer cell line KB.
KB cells were seeded into wells at a density of 1×10^4 -1.5×10^4 cells per well and grown for 24 hours in DMEM supplemented with 5% FCS (charcoal-stripped). Cell growth was determined after incubation for 3 days by the extent of metabolism of MTT tetrazolium dye to furnish a bluish colour. Cell growth was then determined in the presence of EGF (10 ng/ml) or in the presence of EGF (10 ng/ml) and a test compound at a range of concentrations. An ICSO value could then be calculated.

[3] = target: T1, EGF receptor tyrosine kinase (Homo sapiens, UniProt P00533); assay: in vitro assay, inhibition of EGF receptor tyrosine kinase (test (a)); type: biochemical, human (A-431 cells, derived from human vulval carcinoma); settings: approximately
T1 construct: Receptor tyrosine kinase was obtained in partially purified form from A-431 cells; endogenous in cells; host or cells: A-431 cells (human vulval carcinoma)
Procedure: (a) An in vitro assay which determines the ability of a test compound to inhibit the enzyme EGF receptor tyrosine kinase. Receptor tyrosine kinase was obtained in partially purified form from A-431 cells (derived from human vulval carcinoma) by the procedures described below which are related to those described by Carpenter et al., J. Biol. Chem., 1979. 254, 4884, Cohen et al., J. Biol. Chem., 1982, 257, 1523 and by Braun et al., J. Biol. Chem., 1984, 259, 2051.
A-431 cells were grown to confluence using Dulbecco's modified Eagle's medium (DMEM) containing 5% fetal calf serum (FCS). The obtained cells were homogenised in a hypotonic borate/EDTA buffer at pH 10.1. The homogenate was centrifuged at 400 g for 10 minutes at 0-4° C. The supernatant was centrifuged at 25,000 g for 30 minutes at 0-4° C. […]
The test compound/EGF mixture solution (5 μl) was added to the test enzyme solution (10 μl) and the mixture was incubated at 0-4° C. for 30 minutes. […] Radioactivity present in the filter paper was measured using a liquid scintillation counter (Sequence A). […]
Receptor tyrosine kinase inhibition was calculated as follows: [formula]
The extent of inhibition was then determined at a range of concentrations of test compound to give an IC50 value.

[4] = test system: another carcinoma which does not express EGF receptor tyrosine kinase; settings: cited from earlier work
[5] = test system: human mammary carcinoma which expresses EGF receptor tyrosine kinase; settings: athymic nude mice; cited from earlier work

T1 sequence (P00533 25-1210): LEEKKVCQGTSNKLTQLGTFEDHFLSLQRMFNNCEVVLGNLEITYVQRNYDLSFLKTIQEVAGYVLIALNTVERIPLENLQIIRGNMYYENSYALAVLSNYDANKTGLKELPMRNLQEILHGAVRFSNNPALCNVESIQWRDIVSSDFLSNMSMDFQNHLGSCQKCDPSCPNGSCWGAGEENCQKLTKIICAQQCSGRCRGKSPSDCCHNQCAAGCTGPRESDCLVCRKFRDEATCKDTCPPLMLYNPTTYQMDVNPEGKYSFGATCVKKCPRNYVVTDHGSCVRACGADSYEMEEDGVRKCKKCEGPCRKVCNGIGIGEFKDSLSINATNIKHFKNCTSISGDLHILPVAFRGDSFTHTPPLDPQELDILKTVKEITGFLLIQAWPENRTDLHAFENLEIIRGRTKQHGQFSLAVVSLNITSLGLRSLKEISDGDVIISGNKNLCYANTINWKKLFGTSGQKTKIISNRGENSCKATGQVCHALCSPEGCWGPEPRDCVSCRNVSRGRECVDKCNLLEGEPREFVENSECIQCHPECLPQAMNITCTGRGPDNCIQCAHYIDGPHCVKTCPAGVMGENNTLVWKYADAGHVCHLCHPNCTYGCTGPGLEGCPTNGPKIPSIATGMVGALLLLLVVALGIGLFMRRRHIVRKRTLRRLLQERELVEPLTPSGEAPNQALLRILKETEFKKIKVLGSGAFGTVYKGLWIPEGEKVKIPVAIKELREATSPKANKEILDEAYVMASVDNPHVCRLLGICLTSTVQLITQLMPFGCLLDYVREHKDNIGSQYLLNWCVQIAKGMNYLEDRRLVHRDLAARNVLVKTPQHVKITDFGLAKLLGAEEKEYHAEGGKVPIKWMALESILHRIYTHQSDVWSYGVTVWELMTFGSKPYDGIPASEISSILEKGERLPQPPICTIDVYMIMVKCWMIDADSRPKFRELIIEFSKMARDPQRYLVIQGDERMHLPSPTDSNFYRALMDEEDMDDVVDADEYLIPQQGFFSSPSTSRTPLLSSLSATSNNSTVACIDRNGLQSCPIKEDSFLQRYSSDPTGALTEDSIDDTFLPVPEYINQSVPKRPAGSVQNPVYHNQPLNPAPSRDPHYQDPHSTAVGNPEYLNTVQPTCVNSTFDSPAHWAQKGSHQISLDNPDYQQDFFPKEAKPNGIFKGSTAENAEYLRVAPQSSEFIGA

IC50 [2] [µM] | IC50 [3] [µM] | SMILES | inhibition of tumour volume, test (c) [1] | growth of another carcinoma [4] | growth of transplanted human mammary carcinoma [5]
~0.06 | ~0.076 | Fc1ccc(Nc2ncnc3ccc(NCCCN4CCCC4)cc23)cc1Cl [Example 1, 4-(3'-chloro-4'-fluoroanilino)-6-[3-(pyrrolidin-1-yl)propylamino]quinazoline] | greater than 50% |  | 
 |  | O=CN/C=C/c1cc(O)ccc1O [erbstatin] |  | without effect on the growth | specifically attenuates the growth
